What was measured:
Solubility in water = format: physicochemical; conditions: in presence of air, 25 °C
[1] = n-Octanol/water partition coefficient, shake-flask method; format: physicochemical; conditions: room temperature
Experimental: The lipophilicity of the complexes was measured by the shake-flask method. Distilled water and n-octanol were mixed vigorously for 24 h at 25 °C, to promote solvent saturation in both phases, before the experiments. […] Aliquots of stock solutions were equilibrated with octanol for 4 h in a mechanical shaker. The phase ratio was 2 mL/2 mL (water/n-octanol). The aqueous and octanol layers were carefully separated (by centrifugation at 5000 rpm for 10 min), and UV–vis absorption spectra of the compounds were registered in both phases. The concentration for each sample was determined using the calibration curve. Triplicate experiments have been performed for each complex and the averages were calculated.

HT29 colon cancer cells = assay: MTT cytotoxicity assay, HT29; format: cell-based, human; conditions: HT29, 72 h, mean ± SD n = 3
Experimental: The cytotoxic activity of all complexes was screened against A2780 (ovarian, Sigma-Aldrich, Lisboa, Portugal), MDAMB231 (breast, triple negative, ATCC), and HT29 (colon, ATCC) human cancer cells. Cells were grown in RPMI 1640 (A2780) or DMEM containing GlutaMax-I (MDAMB231), or McCoy’s (HT29) supplemented with 10% FBS and 1% penicillin/streptomycin (Invitrogen, Lisboa, Portugal). All cell lines were kept in a CO2 incubator (Heraeus, Hanau, Germany) with 5% CO2 at 37 °C in a humidified atmosphere. Cell viability was measured using the colorimetric MTT (3-(4,5-dimethylthiazol-2-yl)-2,5-diphenyltetrazolium bromide) assay. For the assays, cells were seeded in 200 μL of complete medium in 96-well plates and incubated at 37 °C for 24 h prior to complex treatment to allow cell adherence. The stock solutions in water (20 mM) of the complexes were freshly prepared and used for sequential dilutions in medium within the concentration range of 10^−10–10^−4 M. Cisplatin was also included in this study as a positive control. After careful removal of the medium, […] of a serial dilution of compounds in fresh medium was added to the cells, and incubation was carried out for 72 h at 37 °C. At the end of the treatment, the medium was discarded, and the cells were incubated with […] of an MTT solution in PBS (0.5 mg mL^−1). After 3 h incubation, medium was removed, and DMSO was added to solubilize the purple formazan crystals formed. The absorbance at 570 nm was measured using a plate spectrophotometer (Power Wave Xs, Bio-Tek, Winooski, VT, USA). Each experiment was repeated at least three times and each concentration tested in at least six replicates. The IC50 values were calculated from dose–response curves analyzed with the GraphPad Prism software (version 5.0).

[2] = molecular target: T1, human serum albumin (HSA) (Homo sapiens, UniProt P02768); assay: Fluorescence quenching of HSA (Trp214); format: binding; conditions: for KSV: pH 7.4
T1 construct: purchased Sigma-Aldrich A1653
T1 sequence (P02768 25-609): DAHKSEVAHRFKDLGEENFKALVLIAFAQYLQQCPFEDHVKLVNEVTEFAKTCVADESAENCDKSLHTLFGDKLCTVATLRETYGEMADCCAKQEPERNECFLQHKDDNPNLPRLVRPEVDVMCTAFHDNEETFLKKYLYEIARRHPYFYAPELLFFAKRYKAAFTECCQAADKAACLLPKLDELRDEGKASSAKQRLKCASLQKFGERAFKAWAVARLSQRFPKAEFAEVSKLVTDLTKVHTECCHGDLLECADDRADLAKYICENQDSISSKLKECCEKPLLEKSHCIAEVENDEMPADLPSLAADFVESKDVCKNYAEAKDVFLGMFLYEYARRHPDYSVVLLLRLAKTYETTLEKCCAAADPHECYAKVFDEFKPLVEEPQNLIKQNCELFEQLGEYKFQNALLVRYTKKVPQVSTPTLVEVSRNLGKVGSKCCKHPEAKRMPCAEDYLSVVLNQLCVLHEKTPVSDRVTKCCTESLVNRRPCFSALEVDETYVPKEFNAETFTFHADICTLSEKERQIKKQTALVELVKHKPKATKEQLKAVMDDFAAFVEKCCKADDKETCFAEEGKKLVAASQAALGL
Experimental: Human serum albumin (HSA) was dissolved in 10 mM HEPES buffer (pH 7.4). The HSA concentration was determined spectrophotometrically using the absorbance value at 280 nm (ε280 = 36,500 M^−1cm^−1). Complex 6 was dissolved in 10 mM HEPES buffer (pH 7.4). A series of ruthenium-protein batch solutions were prepared by adding different concentrations of ruthenium solutions to the protein solution prepared previously. For fluorescence acquisition, the final HSA concentration was 2.5 μM, and the ruthenium were 0, 0.6, 1.2, 1.8, 2.5, 5, 7.5, 10, 12.5, 15, 17.5, 20, 22.5, 25, 27.5, 30, 32.5, 35, 37.5, 40, 42.5, and 45 μM. […] The reference solutions were prepared following the procedures described above without protein.
Steady-state fluorescence measurements were carried out with a Fluorolog Model-3.22 spectrofluorometer from Horiba Jobin Yvon at 293.15, 298.15, and 310.15 K. All measurements were performed in Hellma® semi-micro fluorescence cuvettes (Suprasil® quartz, path length 10 × 4 mm, chamber volume […]) with the 10 mm path length for the excitation of the sample. The excitation and emission slit widths were fixed at 4.0 nm, and the excitation wavelength was set at 295 nm to selectively excite the tryptophan 214 residue. The emission spectra were recorded from 305 to 550 nm. Solutions of ruthenium complex in 10 mM HEPES buffer pH 7.4 in corresponding concentrations were used as reference for the measured fluorescence spectra of protein-complex mixtures. […] The fluorescence intensities were corrected for the absorption of the exciting light and re-absorption of the emitted light to decrease the inner filter effect using UV–visible absorption data recorded for each sample on a Jasco V-660 spectrophotometer in the range of 260 to 900 nm with 1 cm path quartz cells.
Fluorescence quenching of HSA by complex [Ru(η5-C5H5)(mTPPMS)(bopy)][CF3SO3] (6) […]
F0 = 1 + K τ (Q) = 1 + K (Q) (S1) where F0 and F are the fluorescence intensities of HSA in the absence and presence of the quencher [Ru(η5-C5H5)(mTPPMS)(bopy)][CF3SO3]; [Q] is the quencher concentration; Kq is the bimolecular quenching constant; t0 is the average fluorescence lifetime of HSA in the absence of the quencher, and KSV is the Stern-Volmer quenching constant.
Figure S10. Stern-Volmer plots at pH7.4 for the quenching of (A) HSA and (B) HSA faf by [Ru(η5-C5H5)(mTPPMS)(bopy)][CF3SO3] at three temperatures (◆) 293 K, (●) 298 K, (▲) 310 K.
log(F0 − F) = log K + nlog[Q] ( S2) […]
where Ka is the association constant for a site and n is the number of binding sites by protein.
Figure S11. Double-log plots for the fluorescence quenching for the (A) {HSA-[Ru(η5-C5H5)(mTPPMS)(bopy)][CF3SO3]} and (B) {HSAfaf-[Ru(η5-C5H5)(mTPPMS)(bopy)][CF3SO3]} systems at three temperatures (◆) 293 K, (●) 298 K, (▲) 310 K. […]

[3] = molecular target: T2, {HSA-warfarin} adduct, Sudlow site I of HSA (Homo sapiens, UniProt P02768); assay: Site-marker competitive study with warfarin; format: binding; conditions: HSA and warfarin equimolar 2.5 μM, Ru 0-45 μM, excitation 305 nm, emission ~380 nm
T2 construct: purchased Sigma-Aldrich
T2 sequence (P02768 25-609): as above
Experimental: Competitive binding studies were carried out by fluorescence using the classical site marker warfarin. The concentrations of HSA and warfarin were kept equimolar. The addition of complex 6 to {HSA-warfarin} solution was done according to the procedure described above for the steady-state fluorescence quenching studies.

## [RuCp(mTPPMSNa)(bopy)][CF3SO3] [Compound 6]
Solubility in water
  S(H2O): 15.3 mg/mL
Solubility in water; value in brackets
  S(H2O): 0.015 M
[1]
  Log Po/w: 5.68 ± 0.05
HT29 colon cancer cells
  IC50: 72.4 ± 50 µM
[2]; 293.15 K
  Ka (association constant for a site): (38.806 ± 1.26) × 10^4 L mol^−1
  Kq: (7.91 ± 0.10) × 10^12 L mol^−1 s^−1
  n (number of binding sites): 1.136
  ΔG: -17.3 kcal/mol
  KSV: (7.91 ± 0.10) × 10^4 L mol^−1
[2]; 298.15 K
  Ka (association constant for a site): (19.467 ± 1.14) × 10^4 L mol^−1
  Kq: (8.73 ± 0.12) × 10^12 L mol^−1 s^−1
  n (number of binding sites): 1.053
  ΔG: -17.64 kcal/mol
  KSV: (8.73 ± 0.12) × 10^4 L mol^−1
[2]; 310.15 K
  Ka (association constant for a site): (13.948 ± 1.15) × 10^4 L mol^−1
  Kq: (10.4 ± 0.15) × 10^12 L mol^−1 s^−1
  n (number of binding sites): 0.994
  ΔG: -18.47 kcal/mol
  KSV: (10.4 ± 0.15) × 10^4 L mol^−1
[2]; Van't Hoff, 293.15-310.15 K
  ΔH: 11.99 (R^2 = 0.9963) kJ mol^−1
  ΔS: 287.92 J mol^−1 K^−1
[2]; highest Ru concentration (45 μM), pH 7.4, incubation at 298 K for 24 h
  Quenching of fluorescence intensity: 75%
[3]
  Displacement of warfarin from {HSA-warfarin} adduct (in words): partially replaced
